A word on the EC50: it is the concentration giving half of the maximal effect.

The text below walks through data of US20240209028A1, “CNP COMPOUNDS” (priority 2022, published 2024).

For this assay, the target named is T1, human natriuretic peptide receptor 2 (hNPR2) (Homo sapiens, UniProt P20594).
T1 construct: expressed in transfected cells; host or cells: HEK293 (ATCC CRL-1573), clone 35, co-transfected with pGloSensor-42F
T1 sequence (P20594 23-1047): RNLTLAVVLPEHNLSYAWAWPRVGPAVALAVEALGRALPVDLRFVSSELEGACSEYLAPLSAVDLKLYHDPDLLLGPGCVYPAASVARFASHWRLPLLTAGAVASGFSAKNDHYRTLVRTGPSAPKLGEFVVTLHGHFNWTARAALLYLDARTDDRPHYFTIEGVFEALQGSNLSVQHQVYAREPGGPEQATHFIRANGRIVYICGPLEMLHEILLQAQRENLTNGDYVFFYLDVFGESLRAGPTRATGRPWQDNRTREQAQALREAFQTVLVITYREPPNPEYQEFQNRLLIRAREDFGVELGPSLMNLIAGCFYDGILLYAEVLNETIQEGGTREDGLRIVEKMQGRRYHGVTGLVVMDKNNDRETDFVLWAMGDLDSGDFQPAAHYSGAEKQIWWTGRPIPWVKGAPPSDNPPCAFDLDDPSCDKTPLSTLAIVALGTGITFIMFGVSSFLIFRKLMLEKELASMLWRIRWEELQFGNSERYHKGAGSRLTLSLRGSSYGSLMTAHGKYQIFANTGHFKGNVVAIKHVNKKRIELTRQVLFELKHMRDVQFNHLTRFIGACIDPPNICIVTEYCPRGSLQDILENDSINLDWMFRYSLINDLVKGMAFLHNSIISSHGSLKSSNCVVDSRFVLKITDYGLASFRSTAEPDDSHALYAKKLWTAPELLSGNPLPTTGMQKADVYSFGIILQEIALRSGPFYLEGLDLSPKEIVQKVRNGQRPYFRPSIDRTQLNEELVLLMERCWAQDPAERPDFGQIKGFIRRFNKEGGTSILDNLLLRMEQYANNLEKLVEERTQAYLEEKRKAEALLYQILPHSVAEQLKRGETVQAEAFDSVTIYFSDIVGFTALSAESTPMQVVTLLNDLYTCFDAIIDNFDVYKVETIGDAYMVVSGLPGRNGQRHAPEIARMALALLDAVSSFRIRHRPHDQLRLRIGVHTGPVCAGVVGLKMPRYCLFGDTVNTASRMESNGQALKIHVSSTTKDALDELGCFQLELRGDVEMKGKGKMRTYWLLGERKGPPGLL
Put plainly: In vitro hNPR2 activity assay (cGMP GloSensor reporter, HEK293). The assay is classed as cell-based. Conditions: for EC50: 0% HSA, HEK293-hNPR2/GloSensor cells; for hNPR2 0% HSA. [EC50% rel CNP]: potency relative to CNP22 (0065). Put shortly: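 Potency is the EC50 from a four-parameter logistic fit, also expressed relative to the in-plate CNP22 control (×100), with at least two replicates. Compounds (ten concentrations, […], HSA-free diluent with 1% OVA, 0.01% Tween20) were incubated 30 min at 37 °C on HEK293 cells co-expressing hNPR2 and a GloSensor cGMP luciferase. Luminescence detected with Bright-Glo.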

Starred links: 1 amine or outer side, 2 acyl side, 3 side chain; linkers in the order of their positions; H or OH if unused. Positions of bridges follow the written chain, without caps; N, C: chain ends. Residues, ends and D or L forms follow the SMILES beside them. *: point of attachment. C18 diacid = O=C(O)CCCCCCCCCCCCCCCCC(=O)*; γGlu = O=C(O)[C@H](CCC(=O)[*:2])N[*:1]; AEEA = NCCOCCOCC(=O)O

Turning to `CC[C@H](C)[C@@H]1NC(=O)[C@H](CCCNC(=N)N)NC(=O)[C@H](CCC(=O)O)NC(=O)[C@H](CC(C)C)NC(=O)[C@H](CCCCN)NC(=O)[C@H](CC(C)C)NC(=O)CNC(=O)[C@H](Cc2ccccc2)NC(=O)[C@@H](NC(=O)CNC(=O)[C@H](CCCCN)NC(=O)[C@H](CO)NC(=O)[C@H](CC(C)C)NC(=O)CNC(=O)[C@H](CCCCN)NC(=O)[C@H](CCCCN)NC(=O)[C@H](CCC(N)=O)NC(=O)[C@H](C)NC(=O)CNC(=O)[C@H](CCCCN)NC(=O)[C@H](Cc2ccc(O)cc2)NC(=O)[C@H](CCCCN)NC(=O)[C@H](CCCNC(=N)N)NC(=O)[C@H](C)NC(=O)COCCOCCNC(=O)COCCOCCNC(=O)CC[C@H](NC(=O)CCCCCCCCCCCCCCCCC(=O)O)C(=O)O)CSSC[C@@H](C(=O)O)NC(=O)CNC(=O)[C@H](CC(C)C)NC(=O)CNC(=O)[C@H](CO)NC(=O)[C@H](CC(C)C)NC(=O)[C@H](CO)NC(=O)CNC1=O` [compound 0776] ({C18 diacid-γGlu-AEEA-AEEA}-ARKYKGAQKKGLSKGCFGLKLERIGSLSGLGC-OH; disulfide 16-32), a half-maximal effect (EC50) was put at 0.58 nM and the “hNPR2 0% HSA. [EC50% rel CNP]” value is 33.2%.

For `CC[C@H](C)[C@@H]1NC(=O)[C@H](CCCNC(=N)N)NC(=O)[C@H](CC(=O)O)NC(=O)[C@H](CC(C)C)NC(=O)[C@@H]2CCCN2C(=O)[C@H](CC(C)C)NC(=O)CNC(=O)[C@H](Cc2ccccc2)NC(=O)[C@@H](NC(=O)CNC(=O)[C@H](CCCCN)NC(=O)[C@H](CO)NC(=O)[C@H](CC(C)C)NC(=O)CNC(=O)[C@H](CCCCN)NC(=O)[C@H](CCCCN)NC(=O)[C@H](CCC(N)=O)NC(=O)[C@H](C)NC(=O)CNC(=O)[C@H](CCC(=O)O)NC(=O)[C@H](Cc2ccc(O)cc2)NC(=O)COCCOCCNC(=O)COCCOCCNC(=O)CC[C@H](NC(=O)CCCCCCCCCCCCCCCCC(=O)O)C(=O)O)CSSC[C@@H](C(=O)O)NC(=O)CNC(=O)[C@H](CC(C)C)NC(=O)CNC(=O)[C@H](CO)NC(=O)[C@H](CC(C)C)NC(=O)[C@H](CO)NC(=O)CNC1=O` [compound 1225] ({C18 diacid-γGlu-AEEA-AEEA}-YEGAQKKGLSKGCFGLPLDRIGSLSGLGC-OH; disulfide 13-29), the “hNPR2 0% HSA. [EC50% rel CNP]” value is on record as 29.4%.

`CC[C@H](C)[C@@H]1NC(=O)[C@H](CCCNC(=N)N)NC(=O)[C@H](CC(=O)O)NC(=O)[C@H](CC(C)C)NC(=O)[C@@H]2CCCN2C(=O)[C@H](CC(C)C)NC(=O)CNC(=O)[C@H](Cc2ccccc2)NC(=O)[C@@H](NC(=O)CNC(=O)[C@H](CO)NC(=O)[C@H](CO)NC(=O)[C@H](CC(C)C)NC(=O)CNC(=O)[C@H](CCCCN)NC(=O)[C@H](CCCCN)NC(=O)[C@H](CCC(N)=O)NC(=O)[C@H](C)NC(=O)CNC(=O)[C@H](CCC(=O)O)NC(=O)[C@H](Cc2ccc(O)cc2)NC(=O)COCCOCCNC(=O)COCCOCCNC(=O)CC[C@H](NC(=O)CCCCCCCCCCCCCCCCC(=O)O)C(=O)O)CSSC[C@@H](C(=O)O)NC(=O)CNC(=O)[C@H](CC(C)C)NC(=O)CNC(=O)[C@H](CO)NC(=O)[C@H](CC(C)C)NC(=O)[C@H](CO)NC(=O)CNC1=O` [compound 1227] ({C18 diacid-γGlu-AEEA-AEEA}-YEGAQKKGLSSGCFGLPLDRIGSLSGLGC-OH; disulfide 13-29): the “hNPR2 0% HSA. [EC50% rel CNP]” value came out at 38.2%.

Take `CC[C@H](C)[C@@H]1NC(=O)[C@H](CCCNC(=N)N)NC(=O)[C@H](CC(=O)O)NC(=O)[C@H](CC(C)C)NC(=O)[C@@H]2CCCN2C(=O)[C@H](CC(C)C)NC(=O)CNC(=O)[C@H](Cc2ccccc2)NC(=O)[C@@H](NC(=O)CNC(=O)[C@H](CO)NC(=O)[C@H](CO)NC(=O)[C@H](CC(C)C)NC(=O)CNC(=O)[C@H](CCCCN)NC(=O)[C@H](CCCCN)NC(=O)[C@H](CCC(N)=O)NC(=O)[C@H](C)NC(=O)CNC(=O)[C@H](CCCCN)NC(=O)[C@H](Cc2ccc(O)cc2)NC(=O)COCCOCCNC(=O)COCCOCCNC(=O)CC[C@H](NC(=O)CCCCCCCCCCCCCCCCC(=O)O)C(=O)O)CSSC[C@@H](C(=O)O)NC(=O)CNC(=O)[C@H](CC(C)C)NC(=O)CNC(=O)[C@H](CO)NC(=O)[C@H](CC(C)C)NC(=O)[C@H](CO)NC(=O)CNC1=O` [compound 1233] ({C18 diacid-γGlu-AEEA-AEEA}-YKGAQKKGLSSGCFGLPLDRIGSLSGLGC-OH; disulfide 13-29): the “hNPR2 0% HSA. [EC50% rel CNP]” value amounted to 49.7%.

For the compound `CC[C@H](C)[C@@H]1NC(=O)[C@H](CCCNC(=N)N)NC(=O)[C@H](CC(=O)O)NC(=O)[C@H](CC(C)C)NC(=O)[C@H](CCCCN)NC(=O)[C@H](CC(C)C)NC(=O)CNC(=O)[C@H](Cc2ccccc2)NC(=O)[C@@H](NC(=O)CNC(=O)[C@H](CCCCN)NC(=O)[C@H](CO)NC(=O)[C@H](CC(C)C)NC(=O)CNC(=O)[C@H](CCCCN)NC(=O)[C@H](CCCCN)NC(=O)[C@H](CCC(N)=O)NC(=O)[C@H](C)NC(=O)CNC(=O)[C@H](Cc2c[nH]cn2)NC(=O)[C@H](CCC(=O)O)NC(=O)COCCOCCNC(=O)COCCOCCNC(=O)CC[C@H](NC(=O)CCCCCCCCCCCCCCCCC(=O)O)C(=O)O)CSSC[C@@H](C(=O)O)NC(=O)CNC(=O)[C@H](CC(C)C)NC(=O)CNC(=O)[C@H](CO)NC(=O)[C@H](CC(C)C)NC(=O)[C@H](CO)NC(=O)CNC1=O` [compound 1235], the EC50 came to 1.17 nM and the “hNPR2 0% HSA. [EC50% rel CNP]” value turned out to be 27.2%.

In the case of `CC[C@H](C)[C@@H]1NC(=O)[C@H](CCCNC(=N)N)NC(=O)[C@H](CC(=O)O)NC(=O)[C@H](CC(C)C)NC(=O)[C@@H]2CCCN2C(=O)[C@H](CC(C)C)NC(=O)CNC(=O)[C@H](Cc2ccccc2)NC(=O)[C@@H](NC(=O)CNC(=O)[C@H](CO)NC(=O)[C@H](CO)NC(=O)[C@H](CC(C)C)NC(=O)CNC(=O)[C@H](CCCCN)NC(=O)[C@H](CCCCN)NC(=O)[C@H](CCC(N)=O)NC(=O)[C@H](C)NC(=O)CNC(=O)[C@H](Cc2c[nH]cn2)NC(=O)[C@H](Cc2ccc(O)cc2)NC(=O)COCCOCCNC(=O)COCCOCCNC(=O)CC[C@H](NC(=O)CCCCCCCCCCCCCCCCC(=O)O)C(=O)O)CSSC[C@@H](C(=O)O)NC(=O)CNC(=O)[C@H](CC(C)C)NC(=O)CNC(=O)[C@H](CO)NC(=O)[C@H](CC(C)C)NC(=O)[C@H](CO)NC(=O)CNC1=O` [compound 1241] ({C18 diacid-γGlu-AEEA-AEEA}-YHGAQKKGLSSGCFGLPLDRIGSLSGLGC-OH; disulfide 13-29), the “hNPR2 0% HSA. [EC50% rel CNP]” value is recorded as 30.5%.

With `CC[C@H](C)[C@@H]1NC(=O)[C@H](CCCNC(=N)N)NC(=O)[C@H](CC(=O)O)NC(=O)[C@H](CC(C)C)NC(=O)[C@@H]2CCCN2C(=O)[C@H](CC(C)C)NC(=O)CNC(=O)[C@H](Cc2ccccc2)NC(=O)[C@@H](NC(=O)CNC(=O)[C@H](CO)NC(=O)[C@H](CO)NC(=O)[C@H](CC(C)C)NC(=O)CNC(=O)[C@H](CCCCN)NC(=O)[C@H](CCCCN)NC(=O)[C@H](CCC(N)=O)NC(=O)[C@H](C)NC(=O)CNC(=O)[C@H](CCCCN)NC(=O)[C@H](Cc2ccc(O)cc2)NC(=O)COCCOCCNC(=O)COCCOCCNC(=O)COCCOCCNC(=O)CC[C@H](NC(=O)CC[C@H](NC(=O)CCCCCCCCCCCCCCCCC(=O)O)C(=O)O)C(=O)O)CSSC[C@@H](C(=O)O)NC(=O)CNC(=O)[C@H](CC(C)C)NC(=O)CNC(=O)[C@H](CO)NC(=O)[C@H](CC(C)C)NC(=O)[C@H](CO)NC(=O)CNC1=O` [compound 1356] ({C18 diacid-γGlu-γGlu-AEEA-AEEA-AEEA}-YKGAQKKGLSSGCFGLPLDRIGSLSGLGC-OH; disulfide 13-29; C-terminus assumed), the “hNPR2 0% HSA. [EC50% rel CNP]” value is 22.4%.
